Measured values as given in patent US9753023B2, “Nanofiber grid and related methods” (Carnegie Mellon University, priority 2015, dated 2017).
“Also recorded” adds a separate entry of the source.

How the values were obtained:
Format in all cases: cell-based
[1] = test system: C2C12 mouse myoblasts; assay: Stress relaxation test (step strain) fitted to the standard linear solid (SLS) model
Experimental: (§1) Polymeric solutions of polystyrene (Scientific Polymer Products Inc., Ontario, N.Y., Mw: 2×10^6 g·mol^−1) dissolved in xylene (Fisher Scientific, Pittsburgh, Pa.) at 14% and 5% (w/w) were prepared. Plastic coverslips (Fisher Scientific, Pittsburgh, Pa.) were cut to hollow frames and used as substrates. Suspended and aligned polystyrene (PS) nanofibers of varying diameters, spacing and orientation were deposited onto a rotating plastic hollow frame in criss-crossed patterns using the STEP platform at room temperature and 15% relative humidity. […]
As cells experience forces, interactions between cytosol and cytoskeletal structures within their semi-permeable membrane elicit strain-rate dependent responses, but identifying physiological mechanisms for this behavior has proven difficult [Janmey, P. A., et al., J. Biol. Chem. 1994; 269:32503-13; Darling, E. M., et al., Biophys. […] Since viscoelasticity can alter the measured force at different strain rates, it is nonetheless an important parameter to qualitatively describe even without complete knowledge of the contribution of individual cellular components [Ketene, A. N., et al., Integr. […] Viscoelastic response is quantified through the classic stress relaxation test [Nagayama, K., et al., Med. Eng. […]

[2] = test system: C2C12 mouse myoblasts; assay: Nanonet probe system: single-cell force evolution under cyclic sub-failure stretch with drug; conditions: 30-minute period; for reduction in force: cycled at 1× (one stretch per two minutes), strain rate 2 μm/s
From the text: The use of a suspended nanonet platform for measuring C2C12 mouse myoblast forces attached to fibers of three diameters (250, 400, and 800 nm) representing a wide range of structural stiffness (3-50 nN/μm) in connection with the NFM is developed to allow investigations in cell adhesion forces in response to symmetric and asymmetric external perturbation in single and cyclic modes at high magnifications in real time. The combined findings are two-fold: (i) contractility-based inside-out forces are evenly distributed at the edges of the cell, and that overall force magnitudes are dependent on fiber structural stiffness, and (ii) external perturbation in symmetric and asymmetric modes biases cell-fiber failure location, without affecting the outside-in forces of cell-fiber adhesion (FIG. 5). Further measured are forces of (i) cell-cell junctions, (ii) cyclic perturbation of single cells in presence of drugs, and (iii) cancerous single-cells transitioning from a blebbing to pseudopodial morphology.
as §1, with “humidity. Using a custom solvent evaporation-based fusing method, the nodes of the criss-crossed patterned nanofibers were fused to form STEP nanonets with clamped boundary conditions.” for “humidity.”
To further evaluate the nanonet probe system for efficacy as a drug testing platform at high magnifications and temporal resolutions, we subjected cells to varying concentrations of the rho kinase (ROCK)-inhibitor Y27632 and monitored its force evolution over the same 30-minute period. […]

[3] = test system: DBTRG-05MG glioma cells; assay: Inside-out contractile single cell force and spreading area on nanonets
Experimental: (§2) According to one aspect of the methods described herein, using a highly aggressive glioma model (DBTRG-05MG), the platform technology using nanonets fused in crossed patterns manufactured using the non-electrospinning STEP technique serves to quantify single cell force modulation (both inside-out and outside-in) with and without the presence of a cytoskeleton altering drug (cytochalasin D) using suspended and aligned fiber networks (nanonets) beginning to represent the aligned glioma environment. This platform technology allows to measure contractile single cell forces exerted by glioma cells attached to and migrating along the fiber axis (inside-out). Further, the force response of glioma cells attached to two parallel fibers using a probe deflecting the leading fiber (outside-in) is measured. The forces are calculated using beam deflection within the elastic limit. […] The platform technology also allows for measuring changes in cell morphology, such as shape, area, etc. This technology allows the physiologically relevant aligned fiber networks used as ultra-sensitive force (˜nanoNewtons) probes for investigating drug response and efficacy in disease models at the single cell resolution.

[4] = test system: DBTRG-05MG glioma cells; assay: Outside-in force response to a probe deflecting the leading fiber on nanonets
Experimental: as §2

With `Cc1ccc2c(c1)C(=O)C1(O)CCN(c3ccccc3)C1=N2` (centres unmarked) [blebbistatin] the “relative contributions of SLS parameters k1, k2 and η (normalized)” value ([1]; 50 μM blebbistatin, myosin-II disrupted) was “shifting in the relative contributions from k2 to η; also recorded: shift in major contribution from k2 to η”.
`COC(=O)Nc1nc2ccc(C(=O)c3cccs3)cc2[nH]1` [nocodazole] was tested, and the “relative contributions of SLS parameters k1, k2 and η (normalized)” value ([1]; 10 μM nocodazole, microtubules depolymerized) was “shifting in the relative contributions from k2 to η; also recorded: shift in major contribution from k2 to η”.
In the case of `C[C@@H](N)[C@H]1CC[C@H](C(=O)Nc2ccncc2)CC1` [Y27632], the reduction in force ([2]; 10 μM) was 38%, the reduction in force ([2]; 100 μM) was 57% and the “reaching a steady-state force value” ([2]; ROCK-inhibited cells versus cyclically-perturbed cells) was “did not”.
With `C=C1[C@@H](C)[C@H]2[C@H](Cc3ccccc3)NC(=O)[C@]23[C@H](OC(C)=O)/C=C/[C@@](C)(O)C(=O)[C@@H](C)C/C=C/[C@H]3[C@@H]1O` [cytochalasin D] the “'inside-out' contractile forces” value [3] was “decreasing”, the “spreading area of single glioma cells” value [3] was “compromises the spreading area” and the “'outside-in' force response to external strain” value [4] was “decreasing”.
